Like-named read-outs stand apart in the source and are kept apart here. No end group written: not given here.
What was measured:
[1] = system: food intake in normal human subjects; assay: iv infusion of GLP-1(7-36)amide in a double-blind crossover trial: visual analogue scale ratings and ad libitum lunch energy intake; format: in vivo
Description: The effect of GLP-1(7-36)amide on food intake in normal human subjects.
Healthy human volunteers (20 subjects) were in a double-blind crossover trial given an iv infusion of 50 pmol/(kg·h) of GLP-1(7-36)amide or saline on separate, but otherwise identical experimental days. The infusion was started at 9.00 and lasted until 15.00. At 9.45 the subjects received a fixed amount of breakfast and at 14.15 they had lunch of an identical composition but ad libitum. The subjects rated their feeling of satiety, hunger, fullness and appetite on a visual analogue scale every half hour. The results are given below: • Satiety: GLP-1>Saline, p=0.006 • Hunger: GLP-1<Saline, p=0.007 • Fullness: GLP-1>Saline, p=0.010 • Appetite: GLP-1<Saline, p=0.007
The energy intake of each subjects was measured. The intakes were 3.9 MJ with GLP-1 and 4.3 MJ with Saline resulting in a p-value of 0.009.

food intake in rats = settings: cited from earlier work
[2] = system: appetite suppression in mice; assay: appetite suppression in mice: sucrose consumption, tested immediately after ip injection (Example 2); format: in vivo; settings: 85 micrograms (equivalent to 3.4 mg/kg), 10 minute period, p-value 0.002
Method: Test method for measuring appetite suppression in mice.
Mice were deprived of their normal food for two days and given free access to a 20% sucrose solution on the first day of food deprivation. After the two day food deprivation period, the mice were injected intraperitoneally with 0.5 ml of a solution containing the test substance. Immediately after injection, individual mice were placed in one of eight 15 cm square test boxes with a stainless steel grid floor and a glass drinking tube which projected into the box. […] Consumption of the sucrose solution was measured over a 10 minute period by electronically recording the total amount of contact with the sucrose solution during the test session. The degree of appetite suppression produced by a given test substance was determined by statistical comparison of the mean duration of sucrose consumption by control (vehicle treated) mice with that of mice treated with a test substance. The degree of appetite suppression in a treated group of mice was expressed as percent difference between the test and control group's response duration means. […]

[3] = healthy human volunteers, iv infusion 50 pmol/(kg·h) vs saline, p=0.007

GLP-1: proglucagon fragment 72-108, commonly referred to as GLP-1(1-37) or just GLP-1; in b61 it means GLP-1(7-36)amide
energy intake ([1]; ad libitum lunch, iv infusion 50 pmol/(kg·h), saline 4.3 MJ, p-value 0.009): 3.9 mJ
effect on food intake (food intake in rats; administered intracerebroventricularly, Tang-Christensen et al.): profound effect
effect on food intake (food intake in rats; administered intracerebroventricularly, Turton et al.): profound effect
effect on food intake (food intake in rats; peripheral administration, Turton et al.): inactive
effect on food intake (food intake in rats; peripherally administered, Tang-Christensen et al.): no significant effect

GLP-1(1-36)amide (HDEFERHAEGTFTSDVSSYLEGQAAKEFIAWLVKGR-NH2; UniProt P01275 92-127, looked up, fragment) [GLP-1 fragment 1-36 as C-terminal amide, literature result]
effect on food intake (food intake in rats; route not stated, Tang-Christensen et al.): no effect

GLP-1(7-36)amide (HAEGTFTSDVSSYLEGQAAKEFIAWLVKGR-NH2; UniProt P01275 98-127, looked up) [fragment 7-36 of GLP-1 as C-terminal amide]
Satiety (visual analogue scale) ([1]; healthy human volunteers, iv infusion 50 pmol/(kg·h) vs saline, rated every half hour, p=0.006): GLP-1>Saline
Appetite (visual analogue scale) [1, 3]: GLP-1<Saline
Hunger (visual analogue scale) [1, 3]: GLP-1<Saline
Fullness (visual analogue scale) ([1]; healthy human volunteers, iv infusion 50 pmol/(kg·h) vs saline, p=0.010): GLP-1>Saline
suppression of sucrose consumption [2]: 60%

— patent US20070161568A1, “Use of GLP-1 peptides” (Novo Nordisk A/S, priority 1996, published 2007)
